Values belong to the molecule of their own block, whether it stands above or below them.
Key:
[1] = tested on: 2YFTM/HER3wt and 2YFTM/3TM Ba/F3 cells; experiment: Ba/F3 proliferation assay, HER2 gatekeeper mutant lines; assay type: cell-based; conditions: Ba/F3 lines with methionine gatekeeper mutation in HER2
Procedure: Proliferation Assays. […] For all normalized assays, proliferation was normalized to the DMSO control condition. All graphs were plotted in GraphPad Prism 6 and fit with a non-linear regression of the log(inhibitor) vs response with a variable slope where shown. All graphs are averages (+/−standard deviation) of biological triplicates each performed in technical triplicate unless otherwise noted. If only one biological replicate was performed standard deviations were derived from the technical replicates.

[2] = tested on: Ba/F3 cell line panel (HER2YF/HER3); experiment: 48 h proliferation of the Ba/F3 cell line panel (CellTiter-Glo); assay type: cell-based; conditions: 48 h proliferation curves
Procedure: FIGS. 3A-3D. Design and execution of a high-throughput screen identifies a novel HER2/HER3 inhibitor. FIG. 3A: 2YF/3wt cells were incubated in the presence or absence of NRG for 48 h and proliferation was assessed by CellTiter-Glo (mean±SD, n=1). […] FIG. 3C: Structure and proliferation curves for hit compound 1 (also referred herein as compound 185) against the Ba/F3 cell line panel (mean±SD, n=3), FIG. 3D: Structure and proliferation curves for compound 2 (also referred to herein as compound 55A) against the panel of Ba/F3 cell lines (mean±SD, n=3).
FIGS. 4A-4F. Compound 2 is a selective Type I inhibitor for HER2. […] FIG. 4B: Thermal stabilization of the HER3 kinase domain by either compound 2 or ATP as determined by Thermofluor (mean±SD, n=3). FIGS. 4C-4D: The crystal structure of either erlotinib (FIG. 4C) or 2 (FIG. 4D) bound to EGFR V924R. The kinase domain in complex with compound 2 has been stabilized in the active confirmation by drug binding, despite the mutation—as evidenced by the ordered extension of the activation loop and the inward positioning of the α-C helix.
FIGS. 5A-5D. […] FIG. 5A: Chemical structure of compound 3 (also referred to herein as compound 178). FIG. 5B: Proliferation curves for compound 3 against the Ba/F3 cell line panel (mean±SD, n=3). […] FIG. 5D: The same assay in FIG. 2A was performed with compound 3 in SK-BR-3 cells.
FIG. 10. […]

[3] = tested on: HER2/HER3 signaling in SK-BR-3 cells; experiment: HER2/HER3 signaling in SK-BR-3 cells (western blot); assay type: cell-based
Description: FIGS. 1A-1E. […] FIG. 1E: Cartoon schematic of the EGFR family kinase domain asymmetric dimer. The C-terminal domain of the ‘activator’ kinase (right) interacts with the N-terminal portion of the ‘receiver’ kinase (left). This interaction stabilizes the active conformation of the receiver kinase identified by the ‘in’ conformation of the receiver kinase's α-C helix and the ordered extension of the activation loop.

[4] = tested on: HER2 overexpressing cell lines (BT-474, SK-BR-3); experiment: cell death with CellTox green (Incucyte Zoom), 72 h +/- NRG; assay type: cell-based; conditions: BT-474 and SK-BR-3, 72 h +/- NRG
Procedure: FIGS. 15A-15C. NRG rescues HER2 overexpressing cell lines from type 1.5 inhibitors but not compound 3. FIG. 15A. BT-474 cells were treated with the indicated concentrations of drugs in the presence or absence of NRG for 72 h. Cell death was determined using CellTox green with the Incucyte Zoom data are represented as mean values±SD (n=3). FIG. 15B. Same experiment as in FIG. 15A, but with SK-BR-3 cells. c. Cells were treated with 1 μM of the indicated inhibitor in the presence of varying concentrations of NRG. The lapatininb data is reproduced from FIG. 1C (mean value±SD, n=3).

MAPK1 = MAPK1 (Homo sapiens, UniProt P28482); experiment: Nanosyn in vitro kinase profiling: MAPK1; assay type: biochemical; conditions: compound at 1 μM
JAK3 = JAK3 (Homo sapiens, UniProt P52333); experiment: Nanosyn in vitro kinase profiling: JAK3; assay type: biochemical
Procedure: This was confirmed by in vitro profiling against a panel of kinases, with compound 2 only showing potent inhibition of EGFR and Ab1 (Table 2).
In vitro Kinome Screen. In vitro profiling of compound 2 at 100 nM was conducted by Nanosyn.

HER3 kinase domain = molecular target: T1, HER3 kinase domain (Homo sapiens, UniProt P21860); experiment: HER3 Thermofluor Assay; assay type: binding; conditions: 20 μM inhibitor
T1 construct: added to 19 μL of the HER3 kinase domain in reaction buffer; made in house; host or cells: baculovirus/insect cells (inferred from the pFastBac plasmid)
Procedure: HER3 Thermofluor Assay. The HER3 gatekeeper mutation (T787M) was introduced into the HER3 tyrosine kinase domain in the pFastBac plasmid using standard protocols. Both wt and T787M HER3 were purified according to the previously published protocols. Thermofluor reactions were performed in duplicate and set up as follows. 1 μL of an inhibitor or DMSO dilution in 40% DMSO:water was added to 19 μL of the HER3 kinase domain in reaction buffer. The final reaction solution contained 100 mM MOPS, 200 mM NaCl, 5% glycerol, 5 mM MgCl2, 0.1 mM DTT, 5× SYPRO orange, 2 μM kinase, 2% DMSO and 20 μM inhibitor in the wells of a 96-well, low profile, white, PCR plate (USA scientific). The solution was pipetted up and down to mix, sealed with TempAssure clear PCR flat caps (USA Scientific), centrifuged at 500×g for 30 s, and heated in a Stratagene Mx3005P RT-PCR machine from 25° C. to 95° C. in 0.5° C. increments every 30 s after an initial incubation at 25° C. for 10 min. Fluorescence was measured at the end of each 30 s period with an excitation wavelength of 492 nm and an emission wavelength of 610 nm. […] Values after the well had reached a maximum signal were discarded and the signals were fit to the Boltzmann equation in Graphpad Prism 6. ΔTm was calculated as the difference in melting temperature between the compound treated kinase compared to the DMSO control.

Sequence of JAK3 (P52333 whole entry): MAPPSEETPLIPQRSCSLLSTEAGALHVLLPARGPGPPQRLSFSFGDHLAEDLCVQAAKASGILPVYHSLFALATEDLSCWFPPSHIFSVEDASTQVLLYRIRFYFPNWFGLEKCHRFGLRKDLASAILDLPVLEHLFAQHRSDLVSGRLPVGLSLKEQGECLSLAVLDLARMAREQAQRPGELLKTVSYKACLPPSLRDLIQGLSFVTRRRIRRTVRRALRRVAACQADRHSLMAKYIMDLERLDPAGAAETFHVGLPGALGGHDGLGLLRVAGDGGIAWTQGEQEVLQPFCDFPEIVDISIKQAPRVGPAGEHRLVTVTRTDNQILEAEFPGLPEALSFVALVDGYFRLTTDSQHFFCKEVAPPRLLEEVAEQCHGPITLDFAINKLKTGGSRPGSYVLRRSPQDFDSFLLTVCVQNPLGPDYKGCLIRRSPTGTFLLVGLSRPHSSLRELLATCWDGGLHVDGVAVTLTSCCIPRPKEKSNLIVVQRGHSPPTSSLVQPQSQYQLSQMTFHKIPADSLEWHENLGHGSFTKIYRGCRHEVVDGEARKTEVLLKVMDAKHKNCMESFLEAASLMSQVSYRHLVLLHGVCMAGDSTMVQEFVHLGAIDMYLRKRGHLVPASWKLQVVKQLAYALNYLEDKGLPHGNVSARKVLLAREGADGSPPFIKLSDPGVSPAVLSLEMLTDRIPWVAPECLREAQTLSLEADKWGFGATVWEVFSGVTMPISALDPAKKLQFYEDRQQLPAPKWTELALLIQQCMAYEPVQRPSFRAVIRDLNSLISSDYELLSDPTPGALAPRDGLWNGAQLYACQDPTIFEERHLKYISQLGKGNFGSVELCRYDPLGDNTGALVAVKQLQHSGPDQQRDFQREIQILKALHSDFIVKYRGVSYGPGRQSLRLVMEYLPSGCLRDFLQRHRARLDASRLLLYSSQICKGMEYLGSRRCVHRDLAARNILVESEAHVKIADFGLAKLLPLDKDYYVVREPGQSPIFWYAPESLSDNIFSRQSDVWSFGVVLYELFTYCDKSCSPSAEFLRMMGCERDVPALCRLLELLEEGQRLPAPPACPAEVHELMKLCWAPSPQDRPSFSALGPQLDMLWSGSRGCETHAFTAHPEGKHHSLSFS
Sequence of MAPK1 (P28482 whole entry, species assumed): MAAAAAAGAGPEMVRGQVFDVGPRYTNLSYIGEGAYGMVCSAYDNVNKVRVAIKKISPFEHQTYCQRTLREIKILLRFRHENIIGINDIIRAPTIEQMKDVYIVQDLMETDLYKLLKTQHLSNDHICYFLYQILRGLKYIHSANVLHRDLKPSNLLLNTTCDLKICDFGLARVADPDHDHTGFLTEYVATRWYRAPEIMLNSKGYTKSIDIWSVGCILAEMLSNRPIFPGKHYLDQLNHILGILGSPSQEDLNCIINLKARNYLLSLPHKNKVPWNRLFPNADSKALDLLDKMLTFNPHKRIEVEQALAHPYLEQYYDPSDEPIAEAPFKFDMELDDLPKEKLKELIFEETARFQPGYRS
T1 sequence (P21860 709-966 limits assumed): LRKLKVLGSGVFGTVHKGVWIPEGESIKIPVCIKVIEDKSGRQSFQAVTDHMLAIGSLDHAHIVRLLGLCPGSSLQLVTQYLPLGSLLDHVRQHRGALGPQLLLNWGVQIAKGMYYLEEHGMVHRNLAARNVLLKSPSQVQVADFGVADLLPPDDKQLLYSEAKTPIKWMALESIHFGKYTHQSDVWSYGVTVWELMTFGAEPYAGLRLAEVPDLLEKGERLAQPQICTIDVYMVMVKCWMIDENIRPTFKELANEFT

Structure (SMILES): CS(=O)(=O)CCNCc1ccc(-c2ccc3ncnc(Nc4ccc(OCc5cccc(F)c5)c(Cl)c4)c3c2)o1 [lapatinib]
inhibition of proliferation [1]: unable to inhibit the proliferation
level of pathway inhibition distinguished by the Ba/F3 panel [2]: specifically inhibit signaling at the HER2/HER3 level
activation of EGFR family members ([3]; SK-BR-3, 1 μM lapatinib +/- NRG, 1 h): HER3 is the only member of the EGFR family who remains activated
HER2/HER3 signaling after NRG pre-treatment ([3]; SK-BR-3, NRG or vehicle 15 min then dose response 15 min): NRG pre-treatment rescues HER2/HER3 signaling
efficacy on signaling, 15 min pre-treat vs simultaneous addition with NRG ([3]; SK-BR-3, serum starved 24 h): reduced efficacy of lapatinib when simultaneously added with NRG
HER2/HER3 signaling over a time-course ([3]; SK-BR-3 treated with lapatinib, NRG, or both): NRG rescues p-HER3 and all downstream signaling at all time points examined

inhibition at 1 µM (MAPK1): -2%
Structure (SMILES): COc1ccc(-c2ccoc2)cc1Nc1ncnc2[nH]cc(-c3cc[nH]n3)c12 [compound 3, N-(5-(furan-3-yl)-2-methoxyphenyl)-5-(1H-pyrazol-3-yl)-7H-pyrrolo[2,3-d]pyrimidin-4-amine]
rescue by NRG [4]: not

inhibition at 0.1 µM (JAK3; compound at 100 nM): 20.4%
inhibition at 1 µM (JAK3; compound at 1 μM): 69.4%
binding to HER3 (HER3 kinase domain): capable of binding to HER3
Structure (SMILES): COc1ccc(-c2ccco2)cc1Nc1ncnc2[nH]nc(-c3ccco3)c12 [compound 2, 3-(furan-2-yl)-N-(5-(furan-2-yl)-2-methoxyphenyl)-1H-pyrazolo[3,4-d]pyrimidin-4-amine]

From patent publication US20190119284A1, “ErbB Inhibitors and Uses Thereof” (The Regents of the University of California, priority 2016, published 2019)
